{"source": "patent US10301355B2", "about": "“Method of using pharmaceutical compositions comprising selective peptide-based agonists of melanocortin 1 receptor” (University of Cincinnati, priority 2012, dated 2019)", "assay_type_in_all_cases": "cell-based", "key": {"MC1R [1]": {"target": "T1, MC1R (Homo sapiens, UniProt Q01726)", "T1 sequence (Q01726 whole entry)": "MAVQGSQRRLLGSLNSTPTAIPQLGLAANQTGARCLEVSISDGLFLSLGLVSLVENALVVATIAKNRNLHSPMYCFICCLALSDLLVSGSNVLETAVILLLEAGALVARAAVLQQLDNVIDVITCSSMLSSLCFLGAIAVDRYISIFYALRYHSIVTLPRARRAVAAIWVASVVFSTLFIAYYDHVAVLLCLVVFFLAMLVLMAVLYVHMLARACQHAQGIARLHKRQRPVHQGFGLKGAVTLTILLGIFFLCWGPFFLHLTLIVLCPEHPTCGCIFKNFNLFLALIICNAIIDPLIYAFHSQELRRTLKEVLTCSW", "assay": "Stimulation of cAMP formation in cultured human melanocytes", "parameters": "endogenous in cells; host or cells: cultured human melanocytes", "settings": "for cAMP compared to 10 nM αMSH: cultured human melanocytes; for potency in stimulating cAMP formation, comparison: human melanocytes, 45 minutes of treatment", "procedure": "Peptides were tested on cultured human melanocytes for their capacity to activate MC1R, as measured by stimulating cAMP formation. After 45 minutes of treatment with different concentrations of peptides, cAMP levels were measured using a I^125-labeled radioimmunoassay kit.\n(§1) Peptides were tested as described in Example 4 above on cultured human melanocytes for their capacity to activate MC1R, as measured by stimulating cAMP formation, and for their capacity for stimulating tyrosinase activity, the rate-limiting enzyme for melanin synthesis. The tested peptides were synthesized according to the formula: Ar(CH2)mX^1—X^2—CO—X^3—X^4—X^5-(Trp)n-NX^6R wherein X^1 and X^2 are absent, X^3 is His, X^5 is Arg, and X^6 is H. X^4 amino acids were in the D-stereoisomer form, unless otherwise noted."}, "tyrosinase": {"system": "tyrosinase", "assay": "Stimulation of tyrosinase activity in cultured human melanocytes", "settings": "for TA compared to 10 nM αMSH: tyrosinase activity, cultured human melanocytes", "procedure": "Peptides were tested on cultured human melanocytes for their capacity for stimulating tyrosinase activity, the rate-limiting enzyme for melanin synthesis. Melanocytes were treated every other day, for a total of 6 days, with increasing concentrations of peptides. Medium containing H^3-tyrosine, the substrate for tyrosinase, was added to melanocytes 24 hours before the end of the 6-day treatment. Tyrosinase activity was measured by determining the amount of ^3H2O generated as […] is catalyzed by tyrosinase for melanin synthesis.\nas §1"}, "MC1R [2]": {"target": "T1, MC1R", "assay": "cAMP stimulation in heterologous cells expressing hMC1R", "parameters": "expressed in transfected cells", "settings": "for HMC1R % MAX. ACTIVITY: cAMP, heterologous cells", "procedure": "(§2) Receptor selectivity of peptide agonists for hMC1R was determined by stimulation of cAMP in heterologous cells expressing different human melanocortin receptors (MC1R, MC3R, MC4R, and MC5R)."}, "[3]": {"system": "UV-irradiated human melanocytes", "assay": "Repair of UV-induced 8-oxodG", "procedure": "To investigate the effects of peptides on repair of UV-induced DNA damage, levels of 8-oxodG, a major form of oxidative DNA damage, were measured in UV-irradiated human melanocytes with or without peptide treatment. […] Fluorescence intensity, which correlates with the amount of DNA damage, was quantified using ImagJ software."}, "[4]": {"system": "UV-irradiated human melanocytes", "assay": "Repair of UV-induced cyclobutane pyrimidine dimers (CPD)", "procedure": "To investigate the effects of peptides on the repair of UV-induced DNA damage, levels of cyclobutane pyrimidine dimers (CPD), the major form of DNA photoproducts, were measured in UV-irradiated human melanocytes with or without peptide treatment. Melanocytes were pretreated with the peptides for 4 days prior to, and for 48 hours post UV exposure, harvested, immunostained by a specific antibody for CPD, and analyzed by flow cytometry."}, "hMC3R": {"target": "T2, hMC3R (Homo sapiens, UniProt P41968)", "T2 construct": "expressed in transfected cells", "T2 sequence (P41968 whole entry)": "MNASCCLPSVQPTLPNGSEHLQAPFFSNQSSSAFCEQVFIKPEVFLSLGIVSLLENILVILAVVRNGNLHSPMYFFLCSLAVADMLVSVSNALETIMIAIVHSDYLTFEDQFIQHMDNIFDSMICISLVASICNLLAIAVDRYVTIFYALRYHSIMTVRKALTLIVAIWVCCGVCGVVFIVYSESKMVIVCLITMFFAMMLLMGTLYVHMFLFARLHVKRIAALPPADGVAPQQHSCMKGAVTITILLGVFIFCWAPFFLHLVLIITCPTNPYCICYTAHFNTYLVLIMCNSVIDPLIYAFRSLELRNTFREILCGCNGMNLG", "assay": "cAMP stimulation in heterologous cells expressing hMC3R", "procedure": "as §2"}, "hMC4R": {"target": "T3, hMC4R (Homo sapiens, UniProt P32245)", "T3 construct": "expressed in transfected cells", "T3 sequence (P32245 whole entry)": "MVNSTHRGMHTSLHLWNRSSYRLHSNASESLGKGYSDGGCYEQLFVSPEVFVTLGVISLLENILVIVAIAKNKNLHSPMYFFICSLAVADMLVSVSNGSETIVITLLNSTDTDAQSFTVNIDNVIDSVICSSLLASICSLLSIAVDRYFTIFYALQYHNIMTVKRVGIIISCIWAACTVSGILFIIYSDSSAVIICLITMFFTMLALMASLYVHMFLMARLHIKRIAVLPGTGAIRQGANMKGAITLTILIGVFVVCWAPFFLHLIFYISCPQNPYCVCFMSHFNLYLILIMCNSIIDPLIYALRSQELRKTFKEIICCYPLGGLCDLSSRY", "assay": "cAMP stimulation in heterologous cells expressing hMC4R", "procedure": "as §2"}, "hMC5R": {"target": "T4, hMC5R (Homo sapiens, UniProt P33032)", "T4 construct": "expressed in transfected cells", "T4 sequence (P33032 whole entry)": "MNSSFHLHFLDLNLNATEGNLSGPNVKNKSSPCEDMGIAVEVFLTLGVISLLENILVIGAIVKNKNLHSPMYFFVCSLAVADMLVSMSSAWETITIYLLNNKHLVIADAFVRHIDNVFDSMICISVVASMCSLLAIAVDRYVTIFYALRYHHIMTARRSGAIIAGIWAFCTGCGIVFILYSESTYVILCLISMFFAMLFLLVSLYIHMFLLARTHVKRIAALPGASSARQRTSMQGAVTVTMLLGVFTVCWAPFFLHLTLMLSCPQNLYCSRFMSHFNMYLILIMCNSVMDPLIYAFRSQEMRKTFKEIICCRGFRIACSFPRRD", "assay": "cAMP stimulation in heterologous cells expressing hMC5R", "procedure": "as §2"}, "[5]": {"settings": "human melanocytes, 6 days treatment"}}, "note": "“Also recorded” adds a separate entry of the source.", "data": [{"molecule": "Ph(CH2)3CO-His-(D-4-BrPhe)-Arg-Trp-NH2 [474P]", "values": [{"measurement": "cAMP compared to 10 nM αMSH", "setting": "MC1R [1]", "result": "=; <; >"}]}, {"molecule": "Ph(CH2)3CO-His-(D-4-NO2Phe)-Arg-Trp-NH2 [471P]", "values": [{"measurement": "cAMP compared to 10 nM αMSH", "setting": "MC1R [1]", "result": "="}]}, {"molecule": "Ph(CH2)3CO-His-(D-4-tBuPhe)-Arg-NHMe [516P]", "values": [{"measurement": "TA compared to 10 nM αMSH", "setting": "tyrosinase", "result": "<<"}]}, {"molecule": "Ph(CH2)3CO-His-(D-4-FPhe)-Arg-Trp-NH2 [470P]", "values": [{"measurement": "cAMP compared to 10 nM αMSH", "setting": "MC1R [1]", "result": ">"}]}, {"molecule": "Ph(CH2)3CO-His-(D-4-tBuPhe)-Arg-NHEt [494P]", "values": [{"measurement": "cAMP compared to 10 nM αMSH", "setting": "MC1R [1]", "result": "<<"}]}, {"molecule": "4-FC6H4CH2CO-His-(D-2-Nal)-Arg-NHEt [496P]", "values": [{"measurement": "cAMP compared to 10 nM αMSH", "setting": "MC1R [1]", "result": "NR (NR = No Response/inactive at 10 nM)"}]}, {"molecule": "Ph(CH2)3CO-His-(D-2-Thi)-Arg-Trp-NH2 [476P]", "values": [{"measurement": "cAMP compared to 10 nM αMSH", "setting": "MC1R [1]", "result": ">"}]}, {"molecule": "N=C(N)NCCC[C@H](NC(=O)[C@@H](Cc1cccc2ccccc12)NC(=O)[C@H](Cc1c[nH]cn1)NC(=O)CCCc1ccccc1)C(=O)N[C@@H](Cc1c[nH]c2ccccc12)C(N)=O", "note": "[LK-467, Ph(CH2)3CO-His-(D-1-Nal)-Arg-Trp-NH2]", "values": [{"measurement": "HMC1R % MAX. ACTIVITY", "setting": "MC1R [2]", "result": 111, "unit": "%"}, {"measurement": "reduction of 8-oxodG levels, comparison with LK-184", "setting": "[3]; 24 hours after UV exposure", "result": "as effective as LK-184"}, {"measurement": "cAMP compared to 10 nM αMSH", "setting": "MC1R [1]", "result": ">"}, {"measurement": "potency in stimulating cAMP formation, comparison", "setting": "MC1R [1]", "result": "more potent than LK-184"}, {"measurement": "effect on tyrosinase activity, comparison", "setting": "tyrosinase; [5]", "result": "comparable effects in tyrosinase activity"}, {"measurement": "potency relative to a-MSH in activating MC1R and stimulating melanogenesis", "setting": "tyrosinase; [5]", "result": "at least 100 times"}, {"measurement": "reduction of CPD levels, comparison with LK-184", "setting": "[4]; 48 hours after UV exposure", "result": "as effective as LK-184"}, {"measurement": "CPD removal compared with 10 nM α-MSH", "setting": "[4]; peptide at 1 nM, 48 hours post UV", "result": "same effect at 1 nM on CPD removal as 10 nM a-MSH; also recorded: same effect at 1 nM on CPD removal as 10 nM α-MSH"}, {"measurement": "HMC3R % MAX. ACTIVITY", "setting": "hMC3R; cAMP, heterologous cells", "result": 7, "unit": "%"}, {"measurement": "potency at hMC4R compared with LK-184", "setting": "hMC4R", "result": "about ten times less potent"}, {"measurement": "HMC4R % MAX. ACTIVITY", "setting": "hMC4R; cAMP, heterologous cells", "result": 39, "unit": "%"}, {"measurement": "HMC5R % MAX. ACTIVITY", "setting": "hMC5R; cAMP, heterologous cells", "result": 34, "unit": "%"}]}, {"molecule": "Ph(CH2)3CO-His-(D-1-Nal)-Arg-NHEt [491P]", "values": [{"measurement": "cAMP compared to 10 nM αMSH", "setting": "MC1R [1]", "result": "NR (NR = No Response/inactive at 10 nM)"}]}, {"molecule": "Ph(CH2)3CO-His-(D-4-IPhe)-Arg-Trp-NH2 [475P]", "values": [{"measurement": "cAMP compared to 10 nM αMSH", "setting": "MC1R [1]", "result": "<; >"}]}, {"molecule": "4-FC6H4CH2CO-His-(D-4-Bip)-Arg-NHEt [497P]", "values": [{"measurement": "cAMP compared to 10 nM αMSH", "setting": "MC1R [1]", "result": "NR (NR = No Response/inactive at 10 nM)"}]}, {"molecule": "CC(C)(C)c1ccc(C[C@@H](NC(=O)[C@H](Cc2c[nH]cn2)NC(=O)CCCc2ccccc2)C(=O)N[C@@H](CCCNC(=N)N)C(N)=O)cc1", "note": "[LK-514, Ph(CH2)3CO-His-(D-4-tBuPhe)-Arg-NH2]", "values": [{"measurement": "potency in activation of MC1R compared with MT-II", "setting": "MC1R [2]", "result": "about as potent as MT-II"}, {"measurement": "HMC1R % MAX. ACTIVITY", "setting": "MC1R [2]", "result": 94, "unit": "%"}, {"measurement": "reduction of 8-oxodG levels compared with 1 nM α-MSH", "setting": "[3]; peptide at 100 nM, 24 hours post UV", "result": "greater effect than 1 nM α-MSH"}, {"measurement": "cAMP compared to 10 nM αMSH", "setting": "MC1R [1]", "result": "<"}, {"measurement": "potency in stimulating cAMP formation, comparison", "setting": "MC1R [1]", "result": "about ten times less potent than a-MSH; also recorded: more potent than LK-511 or 513; also recorded: about ten times less potent than α-MSH; also recorded: more potent than LK-511 or LK-513"}, {"measurement": "concentration at which significant stimulation of tyrosinase activity begins", "setting": "tyrosinase; [5]", "result": 1, "unit": "nM"}, {"measurement": "effect on tyrosinase activity, comparison", "setting": "tyrosinase; [5]", "result": "the most effective"}, {"measurement": "TA compared to 10 nM αMSH", "setting": "tyrosinase", "result": "<"}, {"measurement": "binding of MC3R", "setting": "hMC3R", "result": "do not bind"}, {"measurement": "binding of MC4R", "setting": "hMC4R", "result": "do not bind"}, {"measurement": "binding of MC5R", "setting": "hMC5R", "result": "do not bind"}]}, {"molecule": "Ph(CH2)3CO-His-(D-3-NO2Phe)-Arg-Trp-NH2 [472P]", "values": [{"measurement": "cAMP compared to 10 nM αMSH", "setting": "MC1R [1]", "result": "<"}]}, {"molecule": "Ph(CH2)3CO-His-(D-2-Nal)-Arg-NH2 [515P]", "values": [{"measurement": "TA compared to 10 nM αMSH", "setting": "tyrosinase", "result": "<<"}]}, {"molecule": "4-BrC6H4CH2CO-His-(D-4-FPhe)-Arg-Trp-NH2 [208P]", "values": [{"measurement": "cAMP compared to 10 nM αMSH", "setting": "MC1R [1]", "result": ">"}]}]}
